Patent US8791141B2, “Organic compounds” (Novartis AG, priority 2008, dated 2014)
Where a name gives a salt, the structure may show the parent alone.

How the values were obtained:
[1] = biological target: T1, CYP11B1 (steroid 11-hydroxylase) (Homo sapiens, UniProt P15538); experiment: Inhibition of cortisol secretion in NCI-H295R cells; format: cell-based; settings: human adrenocortical carcinoma NCI-H295R cells, 24 hours with cell stimulant
T1 construct: the NCI-H295R cells have CYP11B2 (aldosterone synthase) and CYP11B1 (steroid 11-hydroxylase); host or cells: NCI-H295R
T1 sequence (P15538 25-503): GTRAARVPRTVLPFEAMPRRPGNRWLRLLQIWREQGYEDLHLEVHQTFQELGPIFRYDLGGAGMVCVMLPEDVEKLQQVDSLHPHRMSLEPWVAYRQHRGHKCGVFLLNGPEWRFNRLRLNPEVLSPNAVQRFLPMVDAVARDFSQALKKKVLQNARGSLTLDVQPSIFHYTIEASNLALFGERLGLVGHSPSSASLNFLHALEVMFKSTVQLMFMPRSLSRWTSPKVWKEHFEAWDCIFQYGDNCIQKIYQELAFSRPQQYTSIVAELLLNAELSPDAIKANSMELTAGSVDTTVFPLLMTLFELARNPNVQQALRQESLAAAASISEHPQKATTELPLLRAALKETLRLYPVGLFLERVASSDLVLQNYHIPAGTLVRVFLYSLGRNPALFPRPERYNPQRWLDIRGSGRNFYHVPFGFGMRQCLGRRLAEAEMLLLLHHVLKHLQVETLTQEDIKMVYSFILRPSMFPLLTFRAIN
Source text: (§1) The activities of a compound according to the present invention can be assessed by the following in vitro method well-described in the art.
(§2) In particular, the inhibition of aldosterone and cortisol secretion in vitro can be determined by the following assay.
(§3) The cell line NCI-H295R was originally isolated from an adrenocortical carcinoma and has been characterized in the literature through the stimulable secretion of steroid hormones and the presence of the enzymes essential for steroidogenesis. The cells show the physiological property of zonally undifferentiated human foetal adrenocortical cells which, however, have the capacity to produce the steroid hormones which are formed in the three phenotypically distinguishable zones in the adult adrenal cortex. Thus, the NCI-H295R cells have CYP11B2 (aldosterone synthase) and CYP11B1 (steroid 11-hydroxylase).
(§4) The human adrenocortical carcinoma NCI-H295R cell line is obtained from American Type Culture Collection (Manassas, Va.). Insulin/transferrin/selenium (ITS)-A supplement (100×), DMEM/F-12, antibiotic/antimycotic (100×), and fetal calf serum (FCS) are purchased from Invitrogen (Carlsbad, Calif.). Anti-mouse PVT scintillation proximity assay (SPA) beads and NBS 96-well plates are obtained from Amersham (Piscataway, N.J.) and Corning (Acton, Mass.), respectively. Clear bottom 96-well flat bottom plates are purchased from Costar (Corning, N.Y.). Aldosterone and angiotensin (Ang II) are purchased from Sigma (St. Louis, Mo.). D[1,2,6,7-3H(N)]aldosterone and [1,2,6,7-3H(N)]cortisol are acquired from PerkinElmer (Boston, Mass.). Nu-serum is a product of BD Biosciences (Franklin Lakes, N.J.).
(§5) For in vitro measurement of aldosterone and cortisol activity, human adrenocortical carcinoma NCI-H295R cells are seeded in NBS 96-well plates at a density of 25,000 cells/well in 100 μL of a growth medium containing DMEM/F12 supplemented with 10% FCS, 2.5% Nu-serum, 1 μg ITS/ml, and 1× antibiotic/antimycotic. The medium is changed after culturing for 3 days at 37° C. under an atmosphere of 5% CO2/95% air. On the following day, cells are rinsed with 100 μL of DMEM/F12 and incubated in quadruplicate wells at 37° C. for 24 hours with 100 μL of treatment medium containing a cell stimulant and a compound at different concentrations. […] Cell stimulants which can be used are angiotensin-II (1 micromolar), potassium ions (16 millimolar), forskolin (10 micromolar) or a combination of two stimulants. At the end of incubation, the excretion of aldosterone and cortisol into the culture medium can be detected and quantified by commercially available, specific monoclonal antibodies in radioimmunoassays in accordance with the manufacturer's instructions.
(§6) Measurement of aldosterone can also be performed using a 96-well plate format. Each test sample is incubated with 0.02 μCi of D[1,2,6,7-3H(N)]aldosterone and 0.3 μg of anti-aldosterone antibody in phosphate-buffered saline (PBS) containing 0.1% Triton X-100, 0.1% bovine serum albumin, and 12% glycerol in a total volume of 200 μL at room temperature for 1 hour. Anti-mouse PVT SPA beads (50 μL) are then added to each well and incubated overnight at room temperature prior to counting in a Microbeta plate counter. The amount of aldosterone in each sample is calculated by comparing with a standard curve generated using known quantities of the hormone. Measurement of cortisol can be performed in a manner similar to that of aldosterone, except that [1,2,6,7-3H(N)]cortisol is used.
(§7) Inhibition of the release of a steroid can be used as a measure of the respective enzyme inhibition by the added test compounds. The dose-dependent inhibition of enzymatic activity by a compound is calculated by means of an inhibition plot which is characterized by an IC50. […] The inhibition plot is calculated by fitting a 4-parameter logistic function to the raw data points using the least squares method.

[2] = biological target: T2, CYP11B2 (aldosterone synthase) (Homo sapiens, UniProt P19099); experiment: Inhibition of aldosterone secretion in NCI-H295R cells; format: cell-based; settings: human adrenocortical carcinoma NCI-H295R cells, 24 hours with cell stimulant
T2 construct: the NCI-H295R cells have CYP11B2 (aldosterone synthase) and CYP11B1 (steroid 11-hydroxylase); host or cells: NCI-H295R
T2 sequence (P19099 25-503): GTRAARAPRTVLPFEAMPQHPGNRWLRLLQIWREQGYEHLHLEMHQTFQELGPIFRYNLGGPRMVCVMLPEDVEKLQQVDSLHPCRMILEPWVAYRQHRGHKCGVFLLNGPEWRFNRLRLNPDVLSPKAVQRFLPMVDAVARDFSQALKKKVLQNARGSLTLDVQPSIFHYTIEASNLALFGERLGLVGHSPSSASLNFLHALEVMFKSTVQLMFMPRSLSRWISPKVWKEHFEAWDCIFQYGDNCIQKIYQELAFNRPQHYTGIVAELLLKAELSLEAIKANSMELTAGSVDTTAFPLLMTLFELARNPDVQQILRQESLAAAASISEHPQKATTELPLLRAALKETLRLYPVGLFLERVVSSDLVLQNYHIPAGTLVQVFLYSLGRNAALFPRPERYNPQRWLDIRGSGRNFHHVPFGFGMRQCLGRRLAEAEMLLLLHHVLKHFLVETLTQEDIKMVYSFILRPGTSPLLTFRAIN
Source text: as §1, §2, §3, §4, §5, §6, §7

Row | SMILES | IC50 [1] [µM] | IC50 [2] [µM]
1 | Cc1c(-c2cccnc2)[nH]c2ccc(C#N)cc12 [Example 6, 3-Methyl-2-pyridin-3-yl-1H-indole-5-carbonitrile] | 0.007 | 0.001
2 | Cc1c(-c2cccnc2)n(Cc2cccc(C#N)c2)c2cc(F)ccc12 [Example 15, 3-(6-Fluoro-3-methyl-2-pyridin-3-yl-1H-indol-1-ylmethyl)-benzonitrile hydrochloride] | 0.447 | 0.027
3 | Cc1c(-c2cccnc2)n(Cc2ccc(C(=O)O)cc2)c2cccc(F)c12 [Example 33, 4-(4-Fluoro-3-methyl-2-pyridin-3-yl-1H-indol-1-ylmethyl)-benzoic acid] | 0.662 | 0.014
4 | N#Cc1cccc(C(=O)n2c(-c3cccnc3)cc3cc(C#N)ccc32)c1 [Example 42, 1-(3-Cyano-benzoyl)-2-pyridin-3-yl-1H-indole-5-carbonitrile] | 0.6 | 0.03
5 | Cc1c(-c2cccnc2)n(COC(=O)C(C)(C)C)c2ccc(Cl)cc12 [Example 65, 2,2-Dimethyl-propionic acid 5-chloro-3-methyl-2-pyridin-3-yl-indol-1-ylmethyl ester] | 0.24 | 0.01
6 | COc1ccncc1-c1cc2cc(C#N)ccc2[nH]1 [Example 90, 2-(4-Methoxy-pyridin-3-yl)-1H-indole-5-carbonitrile] | 0.4 | 0.04
7 | COc1cncc(-c2cc3ccccc3n2C)c1 [Example 101, 2-(5-Methoxy-pyridin-3-yl)-1-methyl-1H-indole] | 0.037 | 0.002
8 | Cn1c(-c2cnccc2CO)cc2ccccc21 [Example 106, [3-(1-Methyl-1H-indol-2-yl)-pyridin-4-yl]-methanol] | 0.53 | 0.085
9 | Cn1c(-c2cnccc2Cl)cc2ccccc21 [Example 107, 2-(4-Chloro-pyridin-3-yl)-1-methyl-1H-indole] | 0.22 | 0.009
10 | Cn1c(-c2cncc(Cl)c2)c(C#N)c2ccccc21 [Example 123, 2-(5-Chloro-pyridin-3-yl)-1-methyl-1H-indole-3-carbonitrile] | 0.65 | 0.078
11 | Cn1c(-c2cncc(OS(C)(=O)=O)c2)c(C#N)c2ccccc21 [Example 138, Methanesulfonic acid 5-(3-cyano-1-methyl-1H-indol-2-yl)-pyridin-3-yl ester] | 0.326 | 0.043
12 | Cn1c(-c2cncc(CN3CCN(S(C)(=O)=O)CC3)c2)c(C#N)c2ccc(Cl)cc21 [Example 180, 6-Chloro-2-[5-(4-methanesulfonyl-piperazin-1-ylmethyl)-pyridin-3-yl]-1-methyl-1H-indole-3-carbonitrile] | 0.003 | 0.002
13 | CC(C)S(=O)(=O)NCc1cncc(-c2c(C#N)c3ccc(Cl)cc3n2C)c1 [Example 186, Propane-2-sulfonic acid [5-(6-chloro-3-cyano-1-methyl-1H-indol-2-yl)-pyridin-3-ylmethyl]amide] | 0.39 | 0.021
14 | COCCOC(=O)NCc1cncc(-c2c(C#N)c3ccc(Cl)cc3n2C)c1 [Example 192] | 0.02 | 0.004
15 | CC(C)NC(=O)NCc1cncc(-c2c(C#N)c3ccc(Cl)cc3n2C)c1 [Example 196, 1-[5-(6-Chloro-3-cyano-1-methyl-1H-indol-2-yl)-pyridin-3-ylmethyl]-3-isopropyl-urea] | 0.019 | 0.003
16 | CCS(=O)(=O)NCc1cncc(-c2cc3ccc(Cl)cc3n2C)c1 [Example 206, N-[5-(6-Chloro-1-methyl-1H-indol-2-yl)-pyridin-3-ylmethyl]-ethanesulfonamide] | 0.213 | 0.002
17 | Cn1c(-c2cncc(CNS(=O)(=O)CC(F)(F)F)c2)cc2ccc(Cl)cc21 [Example 209, 2,2,2-Trifluoro-ethanesulfonic acid [5-(6-chloro-1-methyl-1H-indol-2-yl)-pyridin-3-ylmethyl]-amide] | 0.788 | 0.023
18 | CC(C)C(=O)C1(CNc2cncc(-c3cc4ccccc4n3C)c2)CCC1 [Example 214, 2-Methyl-1-(1-{[5-(1-methyl-1H-indol-2-yl)-pyridin-3-ylamino]-methyl}-cyclobutyl)-propan-1-one] | 0.377 | 0.056
19 | COCCc1cncc(-c2c(C#N)c3ccccc3n2C)c1 [Example 217, 2-[5-(2-Methoxy-ethyl)-pyridin-3-yl]-1-methyl-1H-indole-3-carbonitrile] | 0.022 | 0.004
20 | CCS(=O)(=O)Nc1cncc(-c2cc3ccccc3n2C)c1 [Example 226, Ethanesulfonic acid [5-(1-methyl-1H-indol-2-yl)-pyridin-3-yl]-amide] | 0.345 | 0.036
21 | CN(C)S(=O)(=O)Nc1cncc(-c2cc3ccccc3n2C)c1 [Example 228] | > 1 | 0.105
22 | CCc1c(-c2cncc(NS(=O)(=O)CC)c2)n(C)c2ccccc12 [Example 229, Ethanesulfonic acid [5-(1-methyl-3-ethyl-1H-indol-2-yl)-pyridin-3-yl]-amide] | 0.125 | 0.005
23 | CCS(=O)(=O)N(C)c1cncc(-c2cc3ccccc3n2C)c1 [Example 231, Ethanesulfonic acid methyl-[5-(1-methyl-1H-indol-2-yl)-pyridin-3-yl]-amide] | 0.051 | 0.002
24 | CCS(=O)(=O)Nc1cncc(-c2c(C)c3ccccc3n2C)c1 [Example 236, Ethanesulfonic acid [5-(1,3-dimethyl-1H-indol-2-yl)-pyridin-3-yl)-amide] | 1.1 | 0.021
25 | CCS(=O)(=O)NCc1cncc(-c2c(C)c3ccccc3n2C)c1 [Example 237, N-((5-(1,3-Dimethyl-1H-indol-2-yl)pyridin-3-yl)methyl)ethanesulfonamide] | 1.61 | 0.005
26 | CCS(=O)(=O)Nc1cncc(-c2c(COC)c3ccc(Cl)cc3n2C)c1 [Example 238, Ethanesulfonic acid [5-(1-methyl-3-methoxymethyl-6-chloro-1H-indol-2-yl)-pyridin-3-yl)-amide] | > 1 | 0.044
